{
  "source": "patent US20070112025A1",
  "about": "“Use of kynurenine-3-hydroxylase inhibitors for the preparation of medicaments for the treatment of l-dopa induced movement disorders, dyskinesias, drug addiction, pain and cataract” (priority 2003, published 2007)",
  "key": {"glutamate release": {"tested_on": "glutamate release", "settings": "KYNA 30-100 nM; without modifying ionotropic or metabotropic GLU receptor function; cited from earlier work"}, "MTPP treated monkeys": {"tested_on": "MTPP treated monkeys", "settings": "NMDA antagonist in MTPP treated monkeys; cited from earlier work"}, "6-OHDA lesioned rats": {"tested_on": "6-OHDA lesioned rats", "assay": "Rotational response to chronic L-DOPA in 6-OHDA lesioned rats (wearing-off model)", "format": "in vivo, rat", "description": "In 6-OHDA lesioned rats, a commonly used model of PD, motor response to L-DOPA decreases after chronic treatment. This effect mimics the “wearing-off” phenomenon observed in parkinsonian patients under chronic treatment with L-DOPA (Boldry et al., Brain Res 1995 Sep. 18; 692: 259-64).\nIn this rat model we evaluated the effect of Ro-618048 (40 mg/kg; ip) and of 2-(3,4-Dichloro-benzoyl)-cyclopropanecarboxylic acid (UPF-648, 50 mg/kg; ip), on the rotational response to chronic L-DOPA (28 days treatment, […]; ip) in comparison to MK-801 (0.1 mg/kg; ip). […]\nTo measure rotational behavior, rats were placed in circular cages and tethered to an automated rotometer. The number of complete turns performed in each 5-min period was recorded by a computer. […]\nRats were injected intraperitoneally twice a day at 8:00 and 16:00 for 28 consecutive days with either a combination of L-DOPA methylester (50 mg/kg) and the peripheral decarboxylase inhibitor benserazide (12.5 mg/kg) or saline. […] The duration of the response was measured by the time between the first 5 min interval when the rate of turning attained half its eventual average value and the first interval when the rate again declined to half its average values.\nData were analyzed by analysis of variance followed by Duncan's new multiple range test for post-hoc comparisons."}, "culture lenses": {"tested_on": "culture lenses", "assay": "In vitro models of cataract (culture lenses exposed to different insults)", "description": "(§1) We evaluated the effect of a treatment with inhibitors of Kyn-3OHase (Ro-618048) and of 2-(3,4-Dichloro-benzoyl)-cyclopropanecarboxylic acid (UPF-648, 50 mg/kg; ip) in an in vivo (chronic naphtalene treatment) and an in vitro models of cataract (culture lenses exposed to different insults)."}, "lens": {"tested_on": "lens", "assay": "In vivo model of cataract (chronic naphtalene treatment)", "description": "as §1"}, "Crl:CD-1 mice": {"tested_on": "Crl:CD-1 mice", "assay": "Mice formalin test", "format": "in vivo, mouse", "settings": "40 mg/kg ip 15 min before formalin, p<0.05", "description": "(§2) We evaluated the analgesic activity of Ro-618048 (40 mg/kg; ip) and of 2-(3,4-Dichloro-benzoyl)-cyclopropanecarboxylic acid (UPF-648, 50 mg/kg; ip) in animal models of inflammatory and neuropathic pain (formalin test in mice) as well as in acute pain test (tail flick in rats).\n(§3) Adult male Wistar rats weighing 175-200 g, and Crl:CD-1 mice weighing 22-25 g at testing were used (Harlan-Nossan, Italy).\nThe formalin test in mouse is a procedure used to model neurogenic inflammation and continuous pain (Shibata et al., 1989, Pain 38: 347-352) as well as some features of post-injury pain in man (Dallel et al., 1995, Pain. 61: 11-16).\nAccording to a modified protocol from Rosland et al., (1990, Pain 42: 235-242) mice were injected subcutaneously (s.c.) with 20 μl of 2.7% solution of formalin into the plantar surface of left hindpaw and placed immediately into clear PVC observation chambers (23×12×13 cm). Pain behavior was quantified by counting the cumulative licking time (sec) of the injected paw. Measurements were taken during the early phase (0-5 min) and late phase (30-40 min) after formalin injection (Tjolsen et al., 1992, Pain 51: 5-17). […]\nMice Formalin test. […] Data were evaluated by analysis of variance followed by Dunnett's t-test.\nThe cumulative licking time (sec) of the injected paw was recorded during the early phase (0-5 min) and late phase (30-40 min) after formalin injection."}, "Wistar rats": {"tested_on": "Wistar rats", "assay": "Tail flick test", "format": "in vivo, rat", "settings": "40 mg/kg ip, 90 min after administration; control 3.9±0.4 sec", "description": "as §2, §3\nThe tail flick test measures the thermal nociceptive threshold defined as the latency required to elicit a tail response to heat. The test was performed according to the method described by D'Amour and Smith (1941, J. Pharmacol. Exp. Ther. 72:74-79) using an analgesiometer (U. Basile, Italy). Rats were treated ip with the drug (Ro-618048 40 mg/kg) or vehicle and 90 min after, each animal was placed on a platform and the tail was exposed to a focused beam of radiant heat approximately 3 cm from the tip. The beam light intensity was adjusted to produce a reaction latency of 3-5 sec in control rats. The thermal nociceptive threshold was defined as the latency required to elicit a tail response. A 20 sec cut-off was used to prevent tissue damage.\nTail Flick Test. The latency was defined as the interval of time (sec) between the onset of the thermal stimulus and the flick of the tail. Data were evaluated by analysis of variance followed by Dunnett's t-test."}, "Male Wistar rats": {"tested_on": "Male Wistar rats", "assay": "Cocaine-induced behavioral sensitization (locomotor activity)", "format": "in vivo, rat", "description": "We evaluated the effect of Ro-618048 (40 mg/kg; ip) and of 2-(3,4-Dichloro-benzoyl)-cyclopropanecarboxylic acid (UPF-648, 50 mg/kg; ip) in a model of cocaine-induced behavioral sensitization in rat.\nMale Wistar rats (Charles River, Kingston, N.Y.) weighing 200-250 g upon arrival were used. Locomotor activity was measured in sixteen identical metal wire hanging cages each measuring 36 cm (L)×25 cm (W)×20 cm (H). Each cage contained two sets of infrared emitter-detector photocells positioned along the long axis 1-cm above the grid floor and 8 cm from the front and back of the cage. Background noise was provided by a white noise generator. Movement within the cages produced photocell interruptions, which were automatically recorded by an IBM-compatible computer.\nAnimals were habituated to the locomotor activity chambers for 2-3 consecutive days before the experiment. Rats received 5 daily IP injections of cocaine (15 mg/kg) or saline and either the Kyn-3OHase inhibitor Ro-618048 (40 mg/kg ip) or its vehicle and locomotor activity was recorded for 3 hours. Ten days after the last injection of cocaine or saline (day 15), the animals were challenged with 15 mg/kg of cocaine in absence of Ro-618048 and locomotor activity was again monitored for 3 h. […]"}, "[1]": {"tested_on": "MPTP-treated cynomolgus (macaca fascicularis) monkeys", "assay": "L-DOPA induced dyskinesia model in parkinsonian monkeys", "format": "in vivo, cynomolgus monkey", "description": "The studies were performed in five to six female MPTP-treated cynomolgus (macaca fascicularis) monkeys (weighing 2.9 to 5.0 kg) with a stable parkinsonian syndrome and reproducible dyskinesias to L-Dopa. The animals were handled in accordance with the National Institute of Health Guide for the Care and Use of Laboratory Animals and all procedures were approved by the Institutional Animal Care Committee of Laval University. They were housed separately in observation cages and exposed to a 12 hour light/dark cycle (lights on 6.0 a.m.-6.0 p.m.) in a temperature controlled room, 23±1° C. They were fed once daily in the afternoon with pellets and fruits, and had free access to water.\nRO-618048 was administered alone and simultaneously with L-Dopa. In particular: • A) RO-618048 at increasing doses, 10, 30, 100 mg/kg was administered alone on three consecutive days and compared with vehicle administered before and after treatments. • B) RO-618048 at increasing doses, 10, 30, 100 mg/kg was given simultaneously with L-Dopa/benserazide on three consecutive days and compared with L-Dopa, which was also given on three consecutive days. During the interval between the treatments, to maintain priming, the animals received an oral treatment with L-Dopa/benserazide (100/25 mg; Prolopa.). Compounds\nRO-618048 at increasing doses, 10, 30, 100 mg/kg was suspended in 0.1% (vol/vol) Tween 80/sterile water and homogenized in a glass homogeniser and mixed overnight until administration, as a homogeneous suspension. The maximum volume of drug suspension administered by oral gavage (p.o) at each increasing dose was 10, 20 and 40 ml respectively. As a control, a suspension of 0.1% (vol/vol) Tween 80/sterile water was administered p.o. (2 ml/kg). L-Dopa methyl ester (Sigma, St. Louis, Mo.); always together with benserazide 50 mg, (Hoffmann-La Roche, Montreal, Quebec), at doses ranging between 25 to 30 mg/kg (based on the threshold concentration for each animal) was dissolved in 1 ml of 0.9% sterile saline and administered s.c. alone or in combination with RO-618048.\nThe severity of dyskinesias was rated for the face, neck, trunk, arms and legs in the following way: None=0; Mild=1; Moderate=2; Severe=3, based on the assessment of the amplitude, interference with normal motor activity and the frequency of the abnormal movements, according to a scale which we have used in several published studies. The dyskinetic score obtained was the sum of the scores for all body segments for a maximal score of 21 points. The mean dyskinetic score for each animal has been calculated as the average of all the scores obtained for 3 hours or for the total duration of the effect of the drugs.\nThe mean Parkinsonian scores and also the mean dyskinetic scores obtained for each monkey, during 3 hours or the total duration of the effect of a given drug, were analysed using the nonparametric Friedman's test followed by multiple comparisons based on Friedman rank sums."}, "[2]": {"settings": "RO-618048 alone 10, 30, 100 mg/kg p.o., compared with vehicle"}},
  "data": [
    {"smiles": "O=C(O)c1cc(=O)c2ccccc2[nH]1", "note": "[KYNA, kynurenic acid]", "values": [
      {"measurement": "glutamate release", "setting": "glutamate release", "result": "strongly inhibits glutamate release"}
    ]},
    {"smiles": "C[C@]12N[C@H](Cc3ccccc31)c1ccccc12", "note": "[MK801]", "values": [
      {"measurement": "L-DOPA induced dyskinesia", "setting": "MTPP treated monkeys", "result": "reduced L-DOPA induced dyskinesia"},
      {"measurement": "decreased rotational response to L-DOPA (duration)", "setting": "6-OHDA lesioned rats; MK801 0.1 mg/kg ip, 29th day after 28 days L-DOPA", "result": "similar"}
    ]},
    {"smiles": "O=C(O)C1CC1C(=O)c1ccc(Cl)c(Cl)c1", "note": "(stereo not drawn) [UPF-648, 2-(3,4-Dichloro-benzoyl)-cyclopropanecarboxylic acid]", "values": [
      {"measurement": "degree of opacification of the lens", "setting": "culture lenses", "result": "reduce the degree of opacification of the lens"},
      {"measurement": "degree of opacification of the lens", "setting": "lens", "result": "reduce the degree of opacification of the lens"}
    ]},
    {"smiles": "COc1ccc(S(=O)(=O)Nc2nc(-c3cccc([N+](=O)[O-])c3)cs2)cc1OC", "note": "[Ro-618048]", "values": [
      {"measurement": "cumulative licking time, early phase (0-5 min)", "setting": "Crl:CD-1 mice; control 106±4.39 sec", "result": "75 ± 5.5", "unit": "s"},
      {"measurement": "cumulative licking time, late phase (30-40 min)", "setting": "Crl:CD-1 mice; control 123±12.8 sec", "result": "68 ± 14.3", "unit": "s"},
      {"measurement": "degree of opacification of the lens", "setting": "culture lenses", "result": "reduce the degree of opacification of the lens"},
      {"measurement": "degree of opacification of the lens", "setting": "lens", "result": "reduce the degree of opacification of the lens"},
      {"measurement": "tail flick response latency to noxious heat", "setting": "Wistar rats", "result": "6.1 ± 0.4", "unit": "s"},
      {"measurement": "decreased rotational response to L-DOPA (duration)", "setting": "6-OHDA lesioned rats; Ro-618048 40 mg/kg ip, acute co-administration on 29th day after 28 days L-DOPA", "result": "reversed"},
      {"measurement": "increase of locomotor response to cocaine, fifth day vs first day", "setting": "Male Wistar rats; Ro-618048 40 mg/kg IP with cocaine 15 mg/kg daily for 5 days, vehicle 20% higher", "result": "did not show any significant increase"},
      {"measurement": "increased locomotor activity response to cocaine challenge vs first day", "setting": "Male Wistar rats; challenge cocaine 15 mg/kg ten days after last injection, without Ro-618048, pretreated 40 mg/kg IP, vehicle 30% higher", "result": "did not"},
      {"measurement": "reduction of dyskinetic response to L-Dopa", "setting": "[1]; 30 mg/kg p.o. simultaneously with L-Dopa/benserazide (25 to 30 mg/kg)", "result": "about 20%"},
      {"measurement": "reduction of dyskinetic response to L-Dopa", "setting": "[1]; 100 mg/kg p.o. simultaneously with L-Dopa/benserazide (25 to 30 mg/kg)", "result": "about 20%"},
      {"measurement": "Parkinsonian score", "setting": "[1]; [2]", "result": "did not have any effect"},
      {"measurement": "locomotor activity", "setting": "[1]; [2]", "result": "did not have any effect"},
      {"measurement": "effect on improvement of parkinsonism induced by L-Dopa", "setting": "[1]; acute RO-618048 with L-Dopa", "result": "without any negative effect"}
    ]}
  ]
}
